Source: PMC12040169 (PLOS Biology, 2025)

Test: in vitro
Conditions: human, hela cells, % viability
Compound `O=[N+]([O-])c1cc(-c2nc(-c3ccco3)c(-c3ccco3)[nH]2)ccc1Br` [CBK019778] has a viability at 28.5 h, 10 µM of 86.3%. `CO/N=C(N)/C(N)=N/OC` [CBK019780] showed a viability at 28.5 h, 10 µM of 98.4%. In the case of `Cc1ccc(CSc2cnc(C(C)(C)C)nc2)cc1` [CBK019832], the viability at 28.5 h, 10 µM is reported as 112%. Compound `O=C1NC(=O)c2c(NC(=O)C3CCCCC3)cccc21` [CBK019837] has a viability at 28.5 h, 10 µM of 88.3%. `N/C(=N\O)c1ccc(OC(F)(F)F)cc1` [CBK019865] showed a viability at 28.5 h, 10 µM of 97.2%. For `COc1nc(N)nc(C/C(=N\NC(=O)c2cccnc2)C2CC2)n1` [CBK019872], the viability at 28.5 h, 10 µM was 90.9%. Work on `COc1ccc(-c2sc(C(=O)O)c(C)c2C#N)cc1` [CBK019922] yielded a viability at 28.5 h, 10 µM of 101%. Work on `O=S1(=O)N=C(c2c(O)nc3ccccc3c2O)Nc2ccccc21` [CBK019929] yielded a viability at 28.5 h, 10 µM of 90.7%. `CCSc1nc(SCC)c2c3c([nH]c2n1)CCCC3` [CBK019936] showed a viability at 28.5 h, 10 µM of 94.6%. For `CC(C)(C)c1cc2cc(NC(=O)C3CC3)ccc2[nH]1` [CBK019994], the viability at 28.5 h, 10 µM was 115%. Compound `Nc1nnc(Sc2nccc(C(F)(F)F)n2)s1` [CBK020023] has a viability at 28.5 h, 10 µM of 99.5%. In the case of `CNC(=S)NCc1ccncc1` [CBK020033], the viability at 28.5 h, 10 µM is reported as 106%. `CCOC(=O)NC(=S)NC(=O)C(C)(C)C` [CBK020037] showed a viability at 28.5 h, 10 µM of 100%. Work on `FC(F)(F)c1nnc2ccc(-n3ccnc3)nn12` [CBK020041] yielded a viability at 28.5 h, 10 µM of 96.1%. With `O=S(=O)(c1ccccc1)C1C2C=CC(COC3CCCCO3)(O2)C1S(=O)(=O)c1ccccc1` (centres unmarked) [CBK020045] the viability at 28.5 h, 10 µM was 92.6%. In the case of `CCOC(=O)c1c2c([nH]c(=S)c1C#N)CCCC2` [CBK020049], the viability at 28.5 h, 10 µM is reported as 97.6%. `CCN(CC)c1ccc(/C=N/NC(=O)CC2=NNC(=O)C2)cc1` [CBK020059] gave a viability at 28.5 h, 10 µM of 91.8%. `O=C(Cn1cncn1)c1ccc2c(c1)CCO2` [CBK020087] gave a viability at 28.5 h, 10 µM of 93.5%. For `CC1CC(=O)C2=C(C1)NN=C(c1cccc(C(F)(F)F)c1)C2` (centres unmarked) [CBK020138], the viability at 28.5 h, 10 µM was 86.9%. For `CN(C)CCN(Cc1ccccn1)c1ncccn1` [CBK020142], the viability at 28.5 h, 10 µM was 116%. Work on `CCCCc1c(Cl)nc(C#N)c2c1CCCC2` [CBK020252] yielded a viability at 28.5 h, 10 µM of 98.9%. For `O=S1(=O)N=c2cc3c(c4cccc1c24)=Nc1ccccc1N3` [CBK020253], the viability at 28.5 h, 10 µM was 89.9%. In the case of `CN1CCN(CCP(=O)(c2ccccc2)c2ccccc2)CC1` [CBK020260], the viability at 28.5 h, 10 µM is reported as 94.1%. For `CC1CC(/N=C2/NCCS2)CC(C)(C)C1` (centres unmarked) [CBK020293], the viability at 28.5 h, 10 µM was 102%. Work on `CCCc1onc(S(=O)(=O)c2ccc(C)cc2)c1NC` [CBK020322] yielded a viability at 28.5 h, 10 µM of 84.3%. Compound `CC(=O)C(C)Oc1ccccc1-n1cccc1` (centres unmarked) [CBK020334] has a viability at 28.5 h, 10 µM of 95.9%. For `O=C(O)CCn1oc(=O)c2ccccc21` [CBK020340], the viability at 28.5 h, 10 µM was 89.8%. In the case of `O=C1C=C(OCc2ccccc2)CN1` [CBK020360], the viability at 28.5 h, 10 µM is reported as 94.4%. With `CC1(C)CN(c2ccc(S(N)(=O)=O)cc2)C1=O` [CBK020416] the viability at 28.5 h, 10 µM was 90.6%. Compound `CCCCc1nccn1CCn1ccnc1CCCC` [CBK020437] has a viability at 28.5 h, 10 µM of 88.7%. For `c1csc(-c2cnc3ccccc3n2)c1` [CBK020525], the viability at 28.5 h, 10 µM was 93.2%. Work on `O=C(NCCc1nc2ccccc2[nH]1)c1cccs1` [CBK020529] yielded a viability at 28.5 h, 10 µM of 99.4%. Compound `COc1ccc(OC)c(/N=C2\CC(=O)CC(C)(C)C2)c1` [CBK020541] has a viability at 28.5 h, 10 µM of 106%. In the case of `O=C(O)CNCCC(=O)c1ccc([N+](=O)[O-])cc1` [CBK020544], the viability at 28.5 h, 10 µM is reported as 87%. Compound `CCOC(=O)c1ncoc1-c1ccc(Cl)cc1Cl` [CBK020578] has a viability at 28.5 h, 10 µM of 90.2%. Work on `CC(=O)Cn1nnnc1C` [CBK020588] yielded a viability at 28.5 h, 10 µM of 99.6%. Compound `CC(C)CS(=O)(=O)Nc1ccc(F)cc1F` [CBK020615] has a viability at 28.5 h, 10 µM of 91.9%. In the case of `OCCSCc1ccc2nonc2c1` [CBK020617], the viability at 28.5 h, 10 µM is reported as 107%. `CN(C)C(c1ccc2c(c1)OCO2)c1nnnn1C1CCCCC1` (centres unmarked) [CBK020620] gave a viability at 28.5 h, 10 µM of 103%. In the case of `O=C1CSC(c2cccc(Cl)c2Cl)N1C1CCCCC1` (centres unmarked) [CBK020678], the viability at 28.5 h, 10 µM is reported as 96.7%. Compound `O=C(Nc1ccc2[nH]c(C3CCCCC3)nc2c1)C1CCCCC1` [CBK020680] has a viability at 28.5 h, 10 µM of 87.7%.
